US9624167B2, “N-(4-hydroxy-4-methyl-cyclohexyl)-4-phenyl-benzenesulfonamides and N-(4-hydroxy-4-methyl-cyclohexyl)-4-(2-pyridyl)benzenesulfonamides and their therapeutic use” (PIMCO 2664 LIMITED, priority 2013, dated 2017)

Tests used:
[1] = test system: TK6 human lymphoblastoid cell line; test: GreenScreen HC cytotoxicity (propidium iodide uptake); assay type: cell-based; settings: for Cytotoxicity, LEC, 48 h, −S9: absence of S9 fraction; for Cytotoxicity, LEC, 48 h, +S9: presence of S9 fraction; for Cytotoxicity, LEC, 24 h: lowest effective concentration for loss of cell viability
Method: GreenScreen HC is a mammalian cell-based assay for measuring the genotoxicity and cytotoxicity of chemical compounds and mixtures.
Cytotoxicity is measured in the GreenScreen assay alongside genotoxicity and the results of the cytotoxicity assessment are used to normalise the genotoxicity measurements as described above.
In the GreenScreen HC assay, cell viability is assessed using a propidium iodide uptake assay. Propidium iodide is an intercalating agent and a fluorescent molecule that can be used to stain cells. It is commonly used to quantitatively assess DNA content to evaluate cell viability or DNA content in cell cycle analysis and can be used to differentiate necrotic, apoptotic and normal cells (see, e.g., Dengler et al., 1995, Anticancer Drugs, Vol. 6, No. 4, pp. 522-532). Exposure to a cytotoxic compound increases the uptake of propidium iodide, which is monitored by optical absorbance and is proportional to […]. Cytotoxic compounds are those that show an observed decrease in relative population survival below a significance threshold set at 90% compared to vehicle-treated control, at one or more test concentrations.
A dilution series of each test compound is generated in parallel in a 96-well, black microplate with an optically clear base. A standard genotoxic compound (methyl methanesulfonate, MMS) is added as an intra-plate quality control check. The plates are analysed at 24 hour and 48 hour time points using a microplate reader, which provides measurements of light absorbance and fluorescence for cells and solutions in the microplates wells.
In addition to measurements of cell viability and genotoxicity described above, the GreenScreen assay incorporates an assessment of the effects of metabolic activation in the assay, the “GreenScreen HC S9 assay”. To accomplish this, the cells are incubated both in the presence of and absence of the post-mitochondrial supernatant liver extract (known as “S9”). S9 is routinely used in genetic toxicology to supplement the test cells with mammalian phase I metabolism. To assess metabolic activation, compounds are incubated with the TK6 strain in the presence of 1% v/v S9 fraction mix for 3 hours with a subsequent 45 hour recovery time. After the recovery period, the GFP fluorescence signal and cell viability (assessed by propidium iodide uptake) are measured using a flow cytometer. Cyclophosphamide, a commonly used control in genotoxicity studies utilising metabolic activation, is used as the positive control in the assay. In the GreenScreen HC S9 assay, genotoxicity is evaluated by induction in GFP expression quantified using the mean sample fluorescence and cytotoxicity using the propidium iodide uptake assay described above. The statistically defined threshold for a positive genotoxicity result is 1.3, i.e. 30% induction over and above the baseline for the vehicle-treated control and the result is reported as positive or negative. Cytotoxic compounds are those that show an observed decrease in relative population survival below a significance threshold set at 90% compared to vehicle-treated control, at one or more test concentrations.
Stably transfected reporter cell lines were derived from the p53-competent human lymphoblastoid TK6 cell line. The reporter cell line carries an episomally replicating plasmid bearing the upstream promoter region and other regulatory sequences of the human GADD45a gene linked to a human optimised Green Fluorescent Protein (GFP) gene. The control cell line carries an identical plasmid except for the removal of 4 base pairs at the start of the EGFP gene, such that GFP is not produced. Both plasmids also carry a gene conferring resistance to hygromycin B to the cell line, allowing continued selection for plasmid presence (200 μg/mL hygromycin B; Invitrogen Corporation, Carlsbad, Calif.). […]

hERG = target: T1, hERG (Homo sapiens, UniProt Q12809); test: hERG Ion Channel Assay (Q-patch, hERG-CHO cells); assay type: cell-based; settings: human, CHO cells stably transfected with hERG (hERG-CHO), pH 7.4, 30 μM, hERG tail current
T1 construct: expressed in transfected cells; host or cells: Chinese Hamster Ovary cells (hERG-CHO), stably transfected
T1 sequence (Q12809 whole entry): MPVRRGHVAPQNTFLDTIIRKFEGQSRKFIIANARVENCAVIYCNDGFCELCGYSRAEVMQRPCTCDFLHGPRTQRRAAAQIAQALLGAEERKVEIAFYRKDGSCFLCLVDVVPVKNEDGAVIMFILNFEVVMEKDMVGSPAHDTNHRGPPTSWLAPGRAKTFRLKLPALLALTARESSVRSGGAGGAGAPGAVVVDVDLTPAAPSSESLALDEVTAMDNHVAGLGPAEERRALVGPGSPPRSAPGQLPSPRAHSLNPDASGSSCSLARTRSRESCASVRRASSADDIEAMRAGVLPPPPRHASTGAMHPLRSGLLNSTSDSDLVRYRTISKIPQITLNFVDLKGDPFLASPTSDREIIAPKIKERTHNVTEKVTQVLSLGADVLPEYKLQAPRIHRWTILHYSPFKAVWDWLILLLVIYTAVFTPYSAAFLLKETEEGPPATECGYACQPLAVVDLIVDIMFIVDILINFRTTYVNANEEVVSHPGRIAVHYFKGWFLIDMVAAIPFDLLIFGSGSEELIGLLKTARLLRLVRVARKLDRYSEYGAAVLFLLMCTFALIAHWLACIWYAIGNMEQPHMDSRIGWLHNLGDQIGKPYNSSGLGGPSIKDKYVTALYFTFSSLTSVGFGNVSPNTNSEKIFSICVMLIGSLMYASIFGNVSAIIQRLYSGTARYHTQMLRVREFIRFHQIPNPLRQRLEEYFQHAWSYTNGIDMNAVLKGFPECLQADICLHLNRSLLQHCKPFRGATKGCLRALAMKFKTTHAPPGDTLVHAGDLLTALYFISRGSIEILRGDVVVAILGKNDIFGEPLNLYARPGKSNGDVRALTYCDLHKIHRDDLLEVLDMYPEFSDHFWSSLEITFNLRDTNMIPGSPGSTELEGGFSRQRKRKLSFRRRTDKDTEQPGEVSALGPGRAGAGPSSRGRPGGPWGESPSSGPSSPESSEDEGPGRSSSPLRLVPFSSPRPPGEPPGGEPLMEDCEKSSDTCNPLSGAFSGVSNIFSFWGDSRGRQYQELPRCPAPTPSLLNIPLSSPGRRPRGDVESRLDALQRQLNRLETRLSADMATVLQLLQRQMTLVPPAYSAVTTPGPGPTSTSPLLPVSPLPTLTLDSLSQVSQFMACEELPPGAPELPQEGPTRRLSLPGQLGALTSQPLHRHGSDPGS
Method: The activity of the compounds against the hERG ion channel was tested. The assay was conducted using the automated path-clamp, Q-patch method using stably transfected Chinese Hamster Ovary cells (hERG-CHO). hERG-CHO cells were cultured in F-12 Kaighn's Nutrient Mixture medium (Invitrogen)+10% FBS at 37° C. for 1-3 days. Cells were kept at 30° C. for 24 to 48 hours prior to patch clamping in order to increase the hERG current amplitude. Subsequently, the cells were harvested by trypsinisation, and kept in Serum Free Medium (SFM) in the Q-patch cell preparation state for up to 6 hours at room temperature before being washed and re-suspended in extracellular solution and applied to the patch clamp sites for data recording.
Patch-clamp voltage protocol: After whole cell configuration was achieved, the cell was held at −80 mV. A 50 millisecond pulse to −40 mV was delivered to measure the leaking current, which was subtracted from the tail current on-line. Then the cell was depolarized to +20 mV for 2 seconds, followed by a one second pulse to −40 mV to reveal hERG tail current. This paradigm was delivered once every 5 seconds to monitor the current amplitude.
Extracellular solution: 137 mM NaCl, 4 mM KCl, 1.8 mM CaCl2, 1 mM MgCl2, 10 mM D(+)-glucose, 10 mM HePES buffer (pH adjusted to 7.4 with NaOH).
After the whole cell configuration was achieved, the extracellular solution (control) was applied first and the cell was stabilized for 2 minutes in extracellular solution. The test compound was then applied from low concentrations to high concentrations cumulatively. The cell was incubated with each test concentration for 5 minutes. During each incubation, the cell was repetitively stimulated using the voltage protocol described above, and the tail current amplitude was continuously monitored.
• (1) Peak tail current >100 pA in control. • (2) Initial run-down <30% and the run-down stops before first application of the test compound. • (3) Leak currents <50% of the control peak tail currents at any time. • (4) rs<20 MΩ throughout the experiment.
The degree of inhibition (%) was obtained by measuring the tail current amplitude, induced by a one second test pulse to −40 mV after a two second pulse to +20 mV, before and after incubation with the test compound. The difference in current was normalized to control and multiplied by 100 in order to obtain the percent inhibition.
Concentration (log) response curves were fitted to a logistic equation (three parameters assuming complete block of the current at very high test compound concentrations) to generate estimates of the 50% inhibitory concentration (IC50). The concentration-response relationship of each compound was constructed from the percentage reductions of current amplitude by sequential concentrations.

Row | Compound | Cytotoxicity, LEC, 48 h, −S9 [1] [µM] | Cytotoxicity, LEC, 48 h, +S9 [1] [µM] | Cytotoxicity, LEC, 24 h [1] [µM] | inhibition at 5 min, 30 µM (hERG) [%]
1 | C[C@]1(O)CC[C@@H](NS(=O)(=O)c2ccc(-c3ncc(F)cc3F)cc2)CC1 [HMC-N-02-B, 4-(3,5-Difluoropyridin-2-yl)-N-((1s,4s)-4-hydroxy-4-methylcyclohexyl)benzenesulfonamide] | 0.01 | 10.2 | 0.04 | 23
2 | C[C@]1(O)CC[C@H](NS(=O)(=O)c2ccc(-c3ncc(Cl)cc3Cl)cc2)CC1 [HMC-N-03-A, 4-(3,5-Dichloropyridin-2-yl)-N-((1r,4r)-4-hydroxy-4-methylcyclohexyl)benzenesulfonamide] | 0.24 | 30 | 0.94 | 13
3 | C[C@]1(O)CC[C@H](NS(=O)(=O)c2ccc(-c3ncc(Cl)cc3Cl)c(F)c2)CC1 [HMC-N-04-A, 4-(3,5-Dichloropyridin-2-yl)-3-fluoro-N-((1r,4r)-4-hydroxy-4-methylcyclohexyl)benzenesulfonamide] | 0.12 | 30 | 0.47 | 26
